We go through 13 molecules from patent publication US20130096105A1, “ArylSulfonamide Based Matrix Metalloprotease Inhibitors” (NOVARTIS AG, priority 2008, published 2013).

SMILES strings stand for the structures.

One data set concerns the target T1, Gelatinase (MMP-2) (Homo sapiens, UniProt P08253).
T1 sequence (P08253 110-660): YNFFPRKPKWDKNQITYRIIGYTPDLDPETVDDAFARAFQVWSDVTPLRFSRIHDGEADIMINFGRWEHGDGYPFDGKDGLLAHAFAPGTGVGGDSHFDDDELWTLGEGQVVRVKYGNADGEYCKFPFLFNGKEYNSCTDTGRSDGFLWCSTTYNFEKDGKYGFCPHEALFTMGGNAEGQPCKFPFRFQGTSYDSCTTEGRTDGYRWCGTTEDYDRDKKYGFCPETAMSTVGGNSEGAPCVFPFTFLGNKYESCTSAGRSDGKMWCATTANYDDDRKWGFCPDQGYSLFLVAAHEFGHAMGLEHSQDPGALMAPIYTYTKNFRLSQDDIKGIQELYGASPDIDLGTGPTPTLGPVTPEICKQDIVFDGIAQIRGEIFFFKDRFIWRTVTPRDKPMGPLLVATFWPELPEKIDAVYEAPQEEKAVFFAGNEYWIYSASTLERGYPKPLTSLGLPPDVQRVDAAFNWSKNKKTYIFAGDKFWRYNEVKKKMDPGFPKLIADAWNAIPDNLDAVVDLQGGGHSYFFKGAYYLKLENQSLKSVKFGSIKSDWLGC
Nature of the data set: Gelatinase (MMP-2) inhibitory activity, fluorogenic peptide substrate cleavage. In kind it is biochemical. The settings on record: read-out: MMP02 IC50. The essentials:
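Fluorogenic assay with MCA-Lys-Pro-Leu-Gly-Leu-Dpa-Ala-Arg-NH2 at 5 μM in Tris-Cl pH 7.5 buffer with ZnCl2, CaCl2, Brij-35 and 1.0% DMSO, 20-25 °C. Enzyme preincubated with inhibitor 60 min; fluorescence (ex 325/em 405 nm) read 60 min after substrate addition. IC50 relative to uninhibited control.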

The target in the next data set is Collagenase-3 (MMP-13) (Homo sapiens, UniProt P45452). Kind of data set: Collagenase-3 (MMP-13) inhibitory activity, fluorogenic peptide substrate cleavage. The format is biochemical. The settings on record: read-out: MMP13 IC50. A digest of the protocol:
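Recombinant pro-MMP-13 activated with 1 mM APMA; inhibitor preincubated 60 min, then 5 μM MCA-Lys-Pro-Leu-Gly-Leu-Dpa-Ala-Arg-NH2 added in Tris-Cl pH 7.5 buffer with Zn2+, Ca2+, Brij-35, 1.0% DMSO, 20-25 °C. Fluorescence (ex 325/em 405 nm) read after 60 min; IC50 versus uninhibited control.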

As a reminder, the IC50 is the concentration at which inhibition is half-maximal. The term melting point denotes the temperature of the solid-liquid transition.

In turn, `NS(=O)(=O)c1cc(C(=O)c2ccc(C(=O)N3CCCC3)cc2)ccc1Cl` [Example 53, 2-Chloro-5-[4-(pyrrolidine-1-carbonyl)-benzoyl]-benzenesulfonamide] yielded a melting point of 146 to 148 °C. For the same molecule, the IC50 at Gelatinase (MMP-2) was above 30 µM. Further, on Collagenase-3 (MMP-13), the 50% inhibitory concentration (IC50) is above 30 µM.
Turning to `COc1ccc(C(=O)c2cccc(S(N)(=O)=O)c2)cc1` [Example 1, 3-(4-Methoxy-benzoyl)-benzenesulfonamide], the melting point is 119 to 122 °C. Moreover, the 50% inhibitory concentration (IC50) at Gelatinase (MMP-2) was 1.92 µM. The half-maximal inhibitory concentration (IC50) on Collagenase-3 (MMP-13) stood at 2.49 µM.
`NS(=O)(=O)c1cc(C(=O)c2ccc3c(c2)CCN3)ccc1Cl` [Example 110, 2-Chloro-5-(2,3-dihydro-1H-indole-5-carbonyl)-benzenesulfonamide] registered a melting point of 55 to 56 °C. Moreover, on Gelatinase (MMP-2), the IC50 was found to be 12 µM. Besides, the IC50 at Collagenase-3 (MMP-13) came to 16.1 µM.
Taken in the same sequence, the figures for `NS(=O)(=O)c1cc(C(=O)c2ccc(-c3cccc(C(F)(F)F)c3)cc2)ccc1Cl` [Example 75, 2-Chloro-5-(3′-trifluoromethyl-biphenyl-4-carbonyl)-benzenesulfonamide] were 75 to 77 °C, above 30 µM and 25.9 µM.
Molecule `NS(=O)(=O)c1cc(C(=O)c2ccc(-c3cccnc3)cc2)ccc1Cl` [Example 41, 2-Chloro-5-(4-pyridin-3-yl-benzoyl)-benzenesulfonamide] showed a melting point of 190 to 192 °C. Moreover, the IC50 at Gelatinase (MMP-2) is above 9 µM. For the same molecule, the IC50 on Collagenase-3 (MMP-13) is 7.52 µM.
Taken in the same sequence, the figures for `NS(=O)(=O)c1cc(C(=O)c2ccc3[nH]ccc3c2)ccc1Cl` [Example 116, 2-Chloro-5-(1H-indole-5-carbonyl)-benzenesulfonamide] were 65 to 66 °C, 15.4 µM and 15.3 µM.
Taken in the same sequence, the figures for `NS(=O)(=O)c1cc(C(=O)c2ccc(-c3ccc4ccccc4c3)cc2)ccc1Cl` [Example 38, 2-Chloro-5-(4-naphthalen-2-yl-benzoyl)-benzenesulfonamide] were 193 to 195 °C, 14.5 µM and 8.58 µM.
As for `Cc1cccc(-c2ccc(C(=O)c3ccc(Cl)c(S(N)(=O)=O)c3)cc2)c1` [Example 60, 2-Chloro-5-(3′-methyl-biphenyl-4-carbonyl)-benzenesulfonamide], the melting point was 176 to 178 °C. For the same molecule, at Gelatinase (MMP-2), the 50% inhibitory concentration (IC50) came to 6.31 µM. Also, on Collagenase-3 (MMP-13), the IC50 was 5.44 µM.
On to `Nc1cccc(-c2ccc(C(=O)c3ccc(Cl)c(S(N)(=O)=O)c3)cc2)c1` [Example 69, 5-(3′-Amino-biphenyl-4-carbonyl)-2-chloro-benzenesulfonamide], for which the melting point is 228 to 230 °C. Also, the IC50 at Gelatinase (MMP-2) turned out to be 1.37 µM. The IC50 at Collagenase-3 (MMP-13) was determined as 2.41 µM.
Taken in the same sequence, the figures for `COc1ccc(C(=O)c2ccc(Cl)c(S(N)(=O)=O)c2)cc1` [Example 3, 2-Chloro-5-(4-methoxy-benzoyl)-benzenesulfonamide] were 156 to 158 °C, 5.18 µM and 2.02 µM.
Molecule `C#Cc1ccc(C(=O)c2ccc(Cl)c(S(N)(=O)=O)c2)cc1` [Example 31, 2-Chloro-5-(4-ethynyl-benzoyl)-benzenesulfonamide] yielded a melting point of 147 to 149 °C. The IC50 on Gelatinase (MMP-2) was found to be 10.4 µM. The half-maximal inhibitory concentration (IC50) on Collagenase-3 (MMP-13) worked out at 12.4 µM.
Taken in the same sequence, the figures for `NS(=O)(=O)c1cc(C(=O)c2ccc(O)cc2F)ccc1Cl` [Example 50, 2-Chloro-5-(2-fluoro-4-hydroxy-benzoyl)-benzenesulfonamide] were 183 to 185 °C, 24.3 µM and 21.3 µM.
The corresponding values for `NS(=O)(=O)c1cc(C(=O)c2ccc(O)c(F)c2)ccc1Cl` [Example 47, 2-Chloro-5-(3-fluoro-4-hydroxy-benzoyl)-benzenesulfonamide] are 206 to 208 °C, 17.3 µM and 11.1 µM.
